Experimental findings from US20250361230A1, “LATS Inhibitors and Uses Thereof” (The USA, as Represented by the Secretary, Dept. of Heath …, priority 2022, published 2025) are described below.

Test [1] concerns the target T1, AKT Kinase-NanoLuc fusion in HEK-293 cells (Homo sapiens, UniProt P31749).
T1 construct: host or cells: HEK-293
Put plainly: NanoBRET target engagement assay in transfected HEK-293 cells, AKT. The following applies: cellular; read-out: AKT (Cellular) IC50. The format is cell-based. In a few lines:
(§1)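 HEK-293 cells transiently transfected with kinase-NanoLuc fusion plasmid for 22-24 h, then incubated with compound and NanoBRET tracer for 1 hour at 37° C. After substrate plus extracellular NanoLuc inhibitor addition, 460 and 600 nm emissions read; no-tracer-corrected BRET ratio used to derive IC50 values.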

Test [2] deals with T2, LATS1 Kinase-NanoLuc fusion in HEK-293 cells (Homo sapiens, UniProt O95835).
T2 construct: host or cells: HEK-293
T2 sequence (O95835 1-1130): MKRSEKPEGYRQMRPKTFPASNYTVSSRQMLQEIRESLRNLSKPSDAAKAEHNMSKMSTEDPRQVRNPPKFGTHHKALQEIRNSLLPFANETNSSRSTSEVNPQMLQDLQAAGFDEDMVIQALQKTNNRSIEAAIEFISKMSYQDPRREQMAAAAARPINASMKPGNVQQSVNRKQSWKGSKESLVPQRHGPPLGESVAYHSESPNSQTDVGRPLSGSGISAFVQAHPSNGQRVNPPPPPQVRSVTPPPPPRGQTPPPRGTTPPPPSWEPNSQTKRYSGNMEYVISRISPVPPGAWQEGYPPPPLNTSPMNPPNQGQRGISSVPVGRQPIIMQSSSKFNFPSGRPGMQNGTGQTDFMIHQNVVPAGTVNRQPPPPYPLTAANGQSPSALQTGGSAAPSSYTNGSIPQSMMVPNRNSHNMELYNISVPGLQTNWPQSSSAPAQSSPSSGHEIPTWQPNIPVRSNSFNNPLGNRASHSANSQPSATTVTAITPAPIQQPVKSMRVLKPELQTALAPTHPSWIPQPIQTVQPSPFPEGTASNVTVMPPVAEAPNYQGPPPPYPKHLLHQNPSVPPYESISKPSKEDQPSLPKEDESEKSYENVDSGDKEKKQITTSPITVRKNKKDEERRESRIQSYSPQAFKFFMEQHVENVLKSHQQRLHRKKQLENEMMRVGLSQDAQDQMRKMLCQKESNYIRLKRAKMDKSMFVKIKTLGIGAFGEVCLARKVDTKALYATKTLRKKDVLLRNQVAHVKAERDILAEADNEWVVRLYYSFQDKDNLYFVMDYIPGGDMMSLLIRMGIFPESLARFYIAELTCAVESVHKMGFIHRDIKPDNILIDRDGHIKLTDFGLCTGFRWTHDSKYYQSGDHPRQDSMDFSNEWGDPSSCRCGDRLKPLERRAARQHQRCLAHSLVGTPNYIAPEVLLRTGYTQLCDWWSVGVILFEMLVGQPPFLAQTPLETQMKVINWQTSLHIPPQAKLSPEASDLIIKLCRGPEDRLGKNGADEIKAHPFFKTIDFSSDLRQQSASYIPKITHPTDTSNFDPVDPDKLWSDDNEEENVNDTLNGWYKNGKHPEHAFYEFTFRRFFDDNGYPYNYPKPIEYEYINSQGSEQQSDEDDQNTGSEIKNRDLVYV
Put plainly: NanoBRET target engagement assay in transfected HEK-293 cells, LATS1. It is filed as cell-based. The following applies: cellular. In a few lines:
as §1

T1 sequence (P31749 whole entry, the tested form may be a part): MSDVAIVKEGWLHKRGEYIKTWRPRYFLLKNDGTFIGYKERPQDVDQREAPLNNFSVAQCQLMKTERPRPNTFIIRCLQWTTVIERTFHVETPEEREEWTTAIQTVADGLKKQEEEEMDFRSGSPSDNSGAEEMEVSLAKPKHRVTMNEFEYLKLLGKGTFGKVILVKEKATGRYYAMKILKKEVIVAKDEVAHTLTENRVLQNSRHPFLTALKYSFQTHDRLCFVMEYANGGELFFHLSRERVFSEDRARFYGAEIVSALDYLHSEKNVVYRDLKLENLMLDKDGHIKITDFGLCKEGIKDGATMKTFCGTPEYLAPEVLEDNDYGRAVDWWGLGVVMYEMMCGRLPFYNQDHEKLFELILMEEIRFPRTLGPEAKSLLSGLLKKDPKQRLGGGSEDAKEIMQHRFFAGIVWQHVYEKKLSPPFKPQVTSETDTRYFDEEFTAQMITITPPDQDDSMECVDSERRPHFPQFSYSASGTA

On to `Cc1cc(-c2ccnc3[nH]cc(C#N)c23)ccc1[C@@]1(O)[C@H](C)CN(C2CCS(=O)(=O)CC2)C[C@@H]1C` [Compound 2003, 4-(4-((3S,4s,5R)-1-(1,1-dioxidotetrahydro-2H-thiopyran-4-yl)-4-hydroxy-3,5-dimethylpiperidin-4-yl)-3-methylphenyl)-1H-pyrrolo[2,3-b]pyridine-3-carbonitrile], for which the IC50 in test [1] is 28.5 µM; in test [2], 0.015 µM.
